By IC50 is commonly meant the concentration that gives 50% inhibition.

Experimental findings from patent publication US20140357655A1, “SPIROINDOLINE DERIVATIVES AS GONADOTROPIN- RELEASING HORMONE RECEPTOR ANTAGONISTS” (Bayer Intellectual Property GmbH, priority 2012, published 2014) are described below.

One assay has as its target T1, human GnRHR (Homo sapiens, UniProt P30968).
T1 construct: host or cells: HEK293 (transient transfection), purchased as frozen labelled cells
T1 sequence (P30968 1-328): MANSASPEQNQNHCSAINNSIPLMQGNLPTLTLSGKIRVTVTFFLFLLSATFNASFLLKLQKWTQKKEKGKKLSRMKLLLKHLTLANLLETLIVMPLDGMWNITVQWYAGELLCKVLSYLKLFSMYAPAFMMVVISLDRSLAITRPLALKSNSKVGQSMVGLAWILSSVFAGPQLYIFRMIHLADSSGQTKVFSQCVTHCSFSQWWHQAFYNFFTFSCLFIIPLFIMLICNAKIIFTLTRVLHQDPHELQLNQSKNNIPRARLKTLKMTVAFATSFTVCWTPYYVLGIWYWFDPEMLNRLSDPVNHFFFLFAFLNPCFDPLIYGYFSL
Nature of the assay: Tag-Lite receptor binding assay. The following applies: Hek293 cells transiently transfected with human GnRHR; green-labelled GnRHR binding peptide; read-out: Potency in receptor binding assay using TAG-LITE technology, given as IC50. The source says: This binding assay is based on the fluorescence resonance energy transfer between fluorescence donor labelled human GnRHR and a green-labelled GnRHR binding peptide. Compounds interfering with the ligand binding side of the human GnRHR will replace the labelled peptide resulting in a signal decrease. The assay principle was established by Cisbio Bioassays (Bagnols-sur-Cèze Cedex, France) and further details are available on their homepage.
The assay procedure was further optimized for use in-house with reduced assay volumes. Frozen Hek293 cells, transiently transfected with human GnRHR and Terbium-labelling of the receptor, were supplied by Cisbio Bioassays as well as Tag-Lite buffer and green-labelled GnRHR binding peptide. Cells were thawed and transferred to cold Tag-Lite buffer. A volume of 8 μl of this cell suspension were added to 100 nl of a 160-fold concentrated solution of the test compound in DMSO pre-dispensed in a well of a white low-volume 384-well microtiter plate (Greiner Bio-One, Frickenhausen, Germany). The mixture was incubated for 5 min at room temperature. In the next step either 4 μl Tag-Lite buffer or as control 4 μl of an exceeding amount unlabelled binding peptide in Tag-Lite buffer were transferred to the mixture. The green-labelled GnRHR binding peptide was added in a final step at EC50 in a volume of 4 μl Tag-Lite buffer. After an incubation of 1 h at room temperature plates were measured in a microplate reader, e.g. a PHERAstar (BMG Labtechnologies, Offenburg, Germany) by using a specific optic module.
A ratio from the fluorescence emissions at 520 nm (green fluorescence) and at 490 nm (background signal of Terbium-labelled GnRHR) was calculated and the data were normalized (reaction without test compound=0% inhibition of binding of green-labelled peptide; reaction without test compound with exceeding amount unlabelled binding peptide=100% inhibition of binding of green-labelled peptide). On the same microtiter plate, compounds were tested at 10 different concentrations in the range of 12.5 μM to 0.64 nM (12.5 μM, 4.2 μM, 1.4 μM, 0.46 μM, 0.15 μM, 51 nM, 17 nM, 5.7 nM, 1.9 nM and 0.64 nM; dilution series prepared before the assay at the level of the 160-fold conc. stock solutions by serial 1:3 dilutions in 100% DMSO) in duplicate values for each concentration. By using an in-house software, the IC50 values were calculated by a 4 parameter fit.

A further assay has as its target T2, human GnRH receptor (Homo sapiens, UniProt P30968).
T2 sequence (P30968 1-328): T1 sequence (P30968 1-328)
Nature of the assay: IP-One HTRF assay with buserelin (at EC80) stimulation. Type of assay: cell-based. The following applies: CHO cells stably expressing human GnRH receptor, read-out: Potency in IP-One HTRF assay, given as IC50. In short, it runs like this:
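Ten-point duplicate titrations (20 μM to 1 nM) were fitted by 4-parameter model to normalized 665/620 nm HTRF ratios, 0% = no compound, 100% = no agonist. Assay measured IP1 accumulation in human GnRH-R CHO cells stimulated 1 h at 37° C with EC80 buserelin, then lysed 1 h at 22° C.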
(In TR-FRET formats the signal depends on donor and acceptor labels being close together.)

For the compound `O=C(NCc1ccccc1Cl)c1ccc2c(c1)C1(CC[S+]([O-])CC1)C(C1CC1)N2S(=O)(=O)c1ccc(F)cc1` (single isomer, unassigned) [Example 13.1, N-(2-Chlorobenzyl)-2-cyclopropyl-1-[(4-fluorophenyl)sulfonyl]-1,2,2′,3′,5′,6′-hexahydrospiro[indole-3,4′-thiopyran]-5-carboxamide 1′-oxide], the IC50 on human GnRHR came to 8.5 nM; on human GnRH receptor, 12 nM.
Turning to `O=C(NCc1ccccc1Cl)c1ccc2c(c1)C1(CCS(=O)(=O)CC1)C(C1CC1)N2S(=O)(=O)c1ccc(F)cc1` (single isomer, unassigned) [Example 18.1, N-(2-chlorobenzyl)-2-cyclopropyl-1-[(4-fluorophenyl)sulfonyl]-1,2,2′,3′,5′,6′-hexahydrospiro[indole-3,4′-thiopyran]-5-carboxamide 1′,1′-dioxide], the IC50 was found to be 11 nM at human GnRHR and 26 nM on human GnRH receptor.
The corresponding values for `O=C(NCc1ccccc1C(F)F)c1ccc2c(c1)C1(CCS(=O)(=O)CC1)C(C1CC1)N2S(=O)(=O)c1ccc(F)cc1` (single isomer, unassigned) [Example 68.1, 2-cyclopropyl-N-[2-(difluoromethyl)benzyl]-1-[(4-fluorophenyl)sulfonyl]-1,2,2′,3′,5′,6′-hexahydrospiro[indole-3,4′-thiopyran]-5-carboxamide 1′,1′-dioxide] are 9.5 nM and 4.2 nM.
The corresponding values for `O=C(Nc1cccc(Cl)c1)c1ccc2c(c1)C1(CCS(=O)(=O)CC1)C(C1CC1)N2S(=O)(=O)c1ccc(F)cc1` (stereo not shown) [Example 24, N-(3-chlorophenyl)-2-cyclopropyl-1-[(4-fluorophenyl)sulfonyl]-1,2,2′,3′,5′,6′-hexahydrospiro[indole-3,4′-thiopyran]-5-carboxamide 1′,1′-dioxide] are 187 nM and 264 nM.
The corresponding values for `O=C(Nc1ccccc1Cl)c1ccc2c(c1)C1(CCS(=O)(=O)CC1)C(C1CC1)N2S(=O)(=O)c1ccc(F)cc1` (stereo not shown) [Example 67, N-(2-chlorophenyl)-2-cyclopropyl-1-[(4-fluorophenyl)sulfonyl]-1,2,2′,3′,5′,6′-hexahydrospiro[indole-3,4′-thiopyran]-5-carboxamide 1′,1′-dioxide] are 154 nM and 113 nM.
For the compound `O=C(NCc1ncccc1C(F)(F)F)c1ccc2c(c1)C1(CCS(=O)(=O)CC1)C(C1CC1)N2S(=O)(=O)c1cccc(OC(F)F)c1` (stereo not shown) [Example 87, 2-cyclopropyl-1-{[3-(difluoromethoxy)phenyl]sulfonyl}-N-{[3-(trifluoromethyl)pyridin-2-yl]methyl}-1,2,2′,3′,5′,6′-hexahydrospiro[indole-3,4′-thiopyran]-5-carboxamide 1′,1′-dioxide], the IC50 at human GnRH receptor was 143 nM.
Turning to `O=C(Nc1cncc(Cl)c1)c1ccc2c(c1)C1(CCS(=O)(=O)CC1)C(C1CC1)N2S(=O)(=O)c1cccc(OC(F)F)c1` (stereo not shown) [Example 88, N-(5-chloropyridin-3-yl)-2-cyclopropyl-1-{[3-(difluoromethoxy)phenyl]sulfonyl}-1,2,2′,3′,5′,6′-hexahydrospiro[indole-3,4′-thiopyran]-5-carboxamide 1′,1′-dioxide], the IC50 on human GnRH receptor stood at 262 nM.
On the same count and under the same terms, to `COC(=O)c1cccc(NC(=O)c2ccc3c(c2)C2(CCS(=O)(=O)CC2)C(C2CC2)N3S(=O)(=O)c2cccc(OC(F)F)c2)c1` (stereo not shown) [Example 89, methyl 3-{[(2-cyclopropyl-1-{[3-(difluoromethoxy)phenyl]sulfonyl}-1′,1′-dioxido-1,2,2′,3′,5′,6′-hexahydrospiro[indole-3,4′-thiopyran]-5-yl)carbonyl]amino}benzoate] belongs 134 nM; to `O=C(NCc1ccccc1C(F)F)c1ccc2c(c1)C1(CCS(=O)(=O)CC1)C(C1CC1)N2S(=O)(=O)c1ccc(OC(F)F)cc1` (stereo not shown) [Example 91, 2-cyclopropyl-1-{[4-(difluoromethoxy)phenyl]sulfonyl}-N-[2-(difluoromethyl)benzyl]-1,2,2′,3′,5′,6′-hexahydrospiro[indole-3,4′-thiopyran]-5-carboxamide 1′,1′-dioxide], 5.9 nM; to `O=C(NCc1ccccc1C(F)(F)F)c1ccc2c(c1)C1(CCS(=O)(=O)CC1)C(C1CC1)N2S(=O)(=O)c1ccc(OC(F)F)cc1` (stereo not shown) [Example 92, 2-cyclopropyl-1-{[4-(difluoromethoxy)phenyl]sulfonyl}-N-[2-(trifluoromethyl)benzyl]-1,2,2′,3′,5′,6′-hexahydrospiro[indole-3,4′-thiopyran]-5-carboxamide 1′,1′-dioxide], 31 nM.
On the same count and under the same terms, to `O=C(NCc1ncccc1C(F)(F)F)c1ccc2c(c1)C1(CCS(=O)(=O)CC1)C(C1CC1)N2S(=O)(=O)c1ccc(OC(F)F)cc1` (stereo not shown) [Example 93, 2-cyclopropyl-1-{[4-(difluoromethoxy)phenyl]sulfonyl}-N-{[3-(trifluoromethyl)pyridin-2-yl]methyl}-1,2,2′,3′,5′,6′-hexahydrospiro[indole-3,4′-thiopyran]-5-carboxamide 1′,1′-dioxide] belongs 53 nM; to `NC(=O)c1ccc(S(=O)(=O)N2c3ccc(C(=O)NCc4ccccc4Cl)cc3C3(CCS(=O)(=O)CC3)C2C2CC2)cc1` (stereo not shown) [Example 94, 1-[(4-carbamoylphenyl)sulfonyl]-N-(2-chlorobenzyl)-2-cyclopropyl-1,2,2′,3′,5′,6′-hexahydrospiro[indole-3,4′-thiopyran]-5-carboxamide 1′,1′-dioxide], 222 nM; to `CN1CCCC1=NS(=O)(=O)c1cccc(NC(=O)c2ccc3c(c2)C2(CCS(=O)(=O)CC2)C(C2CC2)N3S(=O)(=O)c2ccc(C(N)=O)cc2)c1` (stereo not shown) [Example 95, 1-[(4-carbamoylphenyl)sulfonyl]-2-cyclopropyl-N-{3-[(1-methylpyrrolidin-2-ylidene)sulfamoyl]phenyl}-1,2,2′,3′,5′,6′-hexahydrospiro[indole-3,4′-thiopyran]-5-carboxamide 1′,1′-dioxide], 225 nM.
The same measure, in the same setting: in the case of `NC(=O)c1ccc(S(=O)(=O)N2c3ccc(C(=O)Nc4cccc(S(=O)(=O)Nc5nccs5)c4)cc3C3(CCS(=O)(=O)CC3)C2C2CC2)cc1` (stereo not shown) [Example 96, 1-[(4-carbamoylphenyl)sulfonyl]-2-cyclopropyl-N-[3-(1,3-thiazol-2-ylsulfamoyl)phenyl]-1,2,2′,3′,5′,6′-hexahydrospiro[indole-3,4′-thiopyran]-5-carboxamide 1′,1′-dioxide] it was 484 nM; in that of `O=C(Nc1ccc2c(c1)C1(CCS(=O)(=O)CC1)C(C1CC1)N2S(=O)(=O)c1ccc(F)cc1)C1CC1` (stereo not shown) [Example 97, N-{2-Cyclopropyl-1-[(4-fluorophenyl)sulfonyl]-1′,1′-dioxido-1,2,2′,3′,5′,6′-hexahydrospiro[indole-3,4′-thiopyran]-5-yl}cyclopropanecarboxamide], 2230 nM.
For the compound `O=C(Nc1ccc2c(c1)C1(CCS(=O)(=O)CC1)C(C1CC1)N2S(=O)(=O)c1ccc(F)cc1)C1CCCCC1` (stereo not shown) [Example 98, N-{2-cyclopropyl-1-[(4-fluorophenyl)sulfonyl]-1′,1′-dioxido-1,2,2′,3′,5′,6′-hexahydrospiro[indole-3,4′-thiopyran]-5-yl}cyclohexanecarboxamide], the IC50 on human GnRH receptor is 39 nM.
For `O=C(Nc1ccc2c(c1)C1(CCS(=O)(=O)CC1)C(C1CC1)N2S(=O)(=O)c1ccc(F)cc1)C1CCCC1` (stereo not shown) [Example 99, N-{2-cyclopropyl-1-[(4-fluorophenyl)sulfonyl]-1′,1′-dioxido-1,2,2′,3′,5′,6′-hexahydrospiro[indole-3,4′-thiopyran]-5-yl}cyclopentanecarboxamide], the IC50 on human GnRH receptor turned out to be 300 nM.
